Test system: 460 barcoded cancer cell lines
Assay: PRISM pooled barcoded cancer cell line growth screen, 10-point dose-response, 5 days, AUC
Format: cell-based
Design: scale not given here
Text: Several small molecule inhibitors of distinct protein domains of EP300/CBP are available, though the majority target the histone acetyltransferase domain (HAT) or bromodomain (BRD)[5],[10],[21],[22]. […] We used these tools to investigate the relative contribution of the EP300/CBP BRD or HAT domain to tumor cell growth (Fig. 1a). To do so, we performed 10-point, dose-response growth assays using mixed pools of 460 barcoded cancer cell lines, over five days of treatment in vitro[33],[34]. Growth was measured using an area-under-the-curve (AUC) approach (Supplementary Table 1, Supplementary Fig. 1a). […] Given potential differences in compound penetration and solubility, and to compare the relative cell line and tumor-specific effects of these two compounds in assays performed non-simultaneously, we performed a median normalization of each dataset (Supplementary Table 2).

CNC(=O)Nc1ccc2c(c1)CCC21OC(=O)N(CC(=O)N(Cc2ccc(F)cc2)C(C)C(F)(F)F)C1=O (stereo not shown) [Compound A485]
AUC (MG63, Osteosarcoma): 0.9115 | AUC (MHHES1, Ewing Sarcoma): 0.4553 | AUC (MHHNB11, Neuroblastoma): 0.7182 | AUC (MIAPACA2, Pancreatic Cancer): 0.9009 | AUC (MKN1, Gastric Cancer): 0.9671 | AUC (MKN7, Gastric Cancer): 0.9501 | AUC (MKN45, Gastric Cancer): 0.5235 | AUC (MOLM13, AML): 0.5776 | AUC (MOLM16, AML): 1 | AUC (MOLT3, T-acute leukemia): 0.8162 | AUC (MOLT16, T-acute leukemia): 0.9273 | AUC (MON, Rhabdoid): 0.6327 | AUC (NB1, Neuroblastoma): 0.493 | AUC (NB4, AML): 1 | AUC (NCIH23, Lung Cancer): 0.8307 | AUC (NCIH28, Lung Cancer): 0.8488 | AUC (NCIH82, Lung Cancer): 1 | AUC (NCIH196, Lung Cancer): 0.825 | AUC (NCIH211, Lung Cancer): 0.6824 | AUC (NCIH226, Lung Cancer): 0.8402 | AUC (NCIH292, Lung Cancer): 0.7841 | AUC (NCIH322, Lung Cancer): 0.7616 | AUC (NCIH358, Lung Cancer): 0.8611 | AUC (NCIH441, Lung Cancer): 0.8818 | AUC (NCIH460, Lung Cancer): 0.9648 | AUC (NCIH520, Lung Cancer): 0.9521 | AUC (NCIH524, Lung Cancer): 0.8317 | AUC (NCIH596, Lung Cancer): 0.8954 | AUC (NCIH647, Lung Cancer): 1 | AUC (NCIH650, Lung Cancer): 0.8159 | AUC (NCIH661, Lung Cancer): 0.6677 | AUC (NCIH747, Colon/Colorectal Cancer): 0.838 | AUC (NCIH841, Lung Cancer): 0.8663 | AUC (NCIH1048, Lung Cancer): 0.8631 | AUC (NCIH1299, Lung Cancer): 0.8424 | AUC (NCIH1341, Lung Cancer): 1 | AUC (NCIH1373, Lung Cancer): 0.7413 | AUC (NCIH1437, Lung Cancer): 0.6724 | AUC (NCIH1568, Lung Cancer): 0.921 | AUC (NCIH1573, Lung Cancer): 0.8005 | AUC (NCIH1581, Lung Cancer): 0.7694 | AUC (NCIH1648, Lung Cancer): 0.776 | AUC (NCIH1792, Lung Cancer): 0.691 | AUC (NCIH1793, Lung Cancer): 0.7572 | AUC (NCIH1838, Lung Cancer): 0.8275 | AUC (NCIH1930, Lung Cancer): 1 | AUC (NCIH1944, Lung Cancer): 0.8729 | AUC (NCIH1975, Lung Cancer): 0.8115 | AUC (NCIH2004RT, Rhabdoid): 0.9741 | AUC (NCIH2052, Lung Cancer): 0.6997 | AUC (NCIH2122, Lung Cancer): 0.4802 | AUC (NCIH2170, Lung Cancer): 0.9434 | AUC (NCIH2172, Lung Cancer): 0.8484 | AUC (NCIH2196, Lung Cancer): 0.8734 | AUC (NCIH2228, Lung Cancer): 0.7811 | AUC (NCIH2347, Lung Cancer): 0.6039 | AUC (NCIH2444, Lung Cancer): 0.8316 | AUC (NCO2, CML): 0.8351 | AUC (NIHOVCAR3, Ovarian Cancer): 0.9964 | AUC (NUDHL1, Lymphoma): 0.9213 | AUC (NUGC3, Gastric Cancer): 0.8775 | AUC (OAW42, Ovarian Cancer): 0.7266 | AUC (OC314, Ovarian Cancer): 0.891 | AUC (OC316, Ovarian Cancer): 0.9187 | AUC (OCIAML2, AML): 0.6159 | AUC (OCIAML3, AML): 0.7819 | AUC (OCILY19, Lymphoma): 0.6711 | AUC (OCILY132, T-cell lymphoma): 0.9357 | AUC (OCIM1, AML): 0.6185 | AUC (OE19, Esophageal Cancer): 0.9392 | AUC (OE21, Esophageal Cancer): 0.6998 | AUC (ONCODG1, Ovarian Cancer): 0.9734 | AUC (ONS76, Medulloblastoma): 0.7969 | AUC (OSRC2, Kidney Cancer): 0.9758 | AUC (OV56, Ovarian Cancer): 0.9822 | AUC (OVCAR8, Ovarian Cancer): 0.8889 | AUC (OVISE, Ovarian Cancer): 0.951 | AUC (OVK18, Ovarian Cancer): 0.5397 | AUC (OVKATE, Ovarian Cancer): 0.8663 | AUC (OVTOKO, Ovarian Cancer): 0.8262 | AUC (PANC0203, Pancreatic Cancer): 0.6928 | AUC (PANC0327, Pancreatic Cancer): 0.889 | AUC (PANC0403, Pancreatic Cancer): 0.6894 | AUC (PANC0504, Pancreatic Cancer): 0.8448 | AUC (PANC0813, Pancreatic Cancer): 0.8655 | AUC (PATU8902, Pancreatic Cancer): 0.9465 | AUC (PC3, Prostate Cancer): 0.8494 | AUC (PECAPJ15, Head and Neck Cancer): 0.6653 | AUC (PF382, T-acute leukemia): 0.7674 | AUC (PK1, Pancreatic Cancer): 0.6974 | AUC (PK59, Pancreatic Cancer): 0.9772 | AUC (PSN1, Pancreatic Cancer): 0.6172 | AUC (RCM1, Colon/Colorectal Cancer): 0.8245 | AUC (RD, Rhabdomyosarcoma): 0.8188 | AUC (RDES, Ewing Sarcoma): 0.6507 | AUC (RERFLCAI, Lung Cancer): 0.874 | AUC (RERFLCKJ, Lung Cancer): 0.7393 | AUC (RH4, Rhabdomyosarcoma): 0.678 | AUC (RH28, Rhabdomyosarcoma): 1 | AUC (RH36, Rhabdomyosarcoma): 1 | AUC (RHJT, Rhabdomyosarcoma): 1 | AUC (RI1, B-cell Lymphoma): 0.6781 | AUC (RL952, Endometrial/Uterine Cancer): 0.946 | AUC (RL, B-cell Lymphoma): 0.7056 | AUC (RPMI8402, T-acute leukemia): 0.6488 | AUC (RT4, Bladder Cancer): 0.8068 | AUC (RVH421, Melanoma): 0.6261 | AUC (S117, Thyroid Sarcoma): 0.733 | AUC (SAOS2, Osteosarcoma): 0.6843 | AUC (SCABER, Bladder Cancer): 0.7254 | AUC (SCC9, Head and Neck Cancer): 0.6982 | AUC (SCC25, Head and Neck Cancer): 0.8637 | AUC (SCLC21H, Lung Cancer): 0.7482 | AUC (SEM, B-cell Leukemia): 0.591 | AUC (SF539, Glioma): 0.7626
